Data on five molecules can be found in US8431748B2, “Low protonation constant hydroxy acids” (BWE I Malmo AB, priority 2006, dated 2013).

Broadly, the pKa is the pH at which an ionisable group is half protonated.

Molecules are shown by their SMILES.

Data set [1] is described as follows: pKa determination by titration with aqueous potassium hydroxide.
Excerpt: The pKa value was taken as the pH at ½-equivalent volume of potassium hydroxide and corrected against a standard curve prepared from measurements on maleic acid, succinic acid, methacrylic acid, propanoic acid and pentanoic acid.
The nature of data set [2]: Solubility of the product in solvents. Format: physicochemical.
Data set [3] is described as follows: Effect of hydrogen peroxide oxidation of thioether sulphur on pKa. It is filed as physicochemical. The note with it: 0.82-2.17 eq. H2O2 (30%), after 2 days at room temperature, average pKa of oxidation products. Here is the method: Five aqueous (35 ml) solutions of GALA (approx 2 mmol) was prepared) and varying amounts of hydrogen peroxide (0.82-2.17 eq., 30%) added. The average pKa value of the oxidation products was assessed after 2 days at room temperature, and the relation between pKa and mol ratio H2O2/S can be seen in FIG. 1.

Setting [4] is: in water, pH at 1/2-equivalent volume of 0.1 M KOH, corrected against a standard curve.

For the molecule `CCC(CO)(CO)C(=O)O` [DMBA, 2,2-bis-(hydroxymethyl)butanoic acid, reference compound], the pKa in data set [1] (water) is 4.55.

In data set [1] (water), `CC(CO)(CO)C(=O)O` [DMPA, 2,2-bis-(hydroxymethyl)propanoic acid, reference compound] gave a pKa of 4.64.

Regarding `CC(SCCCOCC(O)CO)C(=O)O` (stereo not drawn) [GALA, Glycerol Monoallyl Ether-Thiolactic Acid Adduct], in data set [2] (ethanol/toluene (1/4)), the “solubility in ethanol/toluene (1/4)” value is on record as “soluble”. In data set [2], the solubility in hexane entry is “not soluble” and the solubility in methanol result was “soluble”. Moreover, the solubility in water result in data set [2] (water) is given as “soluble”. In data set [3], the “reduction of pKa value by addition of hydrogen peroxide” value is given as “approximately 1 unit”. In addition, the pKa in data set [1] (setting [4]) was determined as 3.67.

Take `O=C(O)CSCCCOCC(O)CO` (stereo not drawn) [GAMA, Glycerol 1-Monoallyl Ether-Mercaptoacetic Acid]: the pKa in data set [1] (setting [4]) is listed as 3.60.

For `CCC(CO)(CO)COCCCSC(C)C(=O)O` (stereo not drawn) [TELA, Trimethyolpropane Monoallyl Ether-Thiolactic Acid Adduct], in data set [2], the solubility in hexane result is “not soluble” and the solubility in methanol entry is on record as “soluble”. Also, the solubility in toluene result in data set [2] (toluene) was “soluble”.
